Measurements as given in patent publication US8101768B2, “Cyclic amine compound and pest control agent” (Nippon Soda Co., Ltd., priority 2004, dated 2012).

Legend:
[1] = tested on: organophosphorous agent resistant two-spotted spider mites; assay: Effect on Two-spotted Spider Mite (spray on kidney bean leaves); type: in vivo; settings: 125 ppm, water dispersible powder of Formulation Example 1 sprayed, 17 female adults, 25° C., 65% humidity, 3 days
How it was run: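 Mortality of adult females counted after 3 days at 25 °C and 65% humidity, following a 125 ppm spray of wettable-powder dilution onto infested 7–10-day-old bean seedlings (17 mites per leaf). Two replicates.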

[2] = tested on: acaricide resistant citrus red mites; assay: Effect on Citrus Red Mite (spray on mandarin orange leaves); type: in vivo; settings: 31 ppm, emulsifiable concentrate of Formulation Example 2 sprayed, 10 female adults, 25° C., 65% humidity
How it was run: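 Acaricide-resistant female adult citrus red mites (10 per leaf) on mandarin orange leaves were sprayed with emulsifiable concentrate diluted to 31 ppm compound. Leaves were held 3 days at 25° C, 65% humidity, then adults were removed. Eggs laid during those 3 days were checked on day 11 for development to adults.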

army worms = assay: Effect on Army Worm (artificial feed test); type: in vivo; settings: 10 μg of compound on 0.2 ml artificial feed, second instar, 25° C., 5 days
Experimental: Test feeds were prepared by filling plastic test tubes (capacity of 1.4 ml) with 0.2 ml of a commercial artificial feed (Insecta LFS, manufactured by Nosan Corporation). Each of 1% chemical compound solutions was prepared by using DMSO (containing 0.5% tween 20), which was then dropped into the surface of the feed in amount of 10 μg of the respective chemical compounds. 2 army worms, each of which was in the second instar, were inoculated into each of the test tubes, which were then sealed by their plastic caps. After they were left at 25° C. for 5 days, the rate of killed army worms and their feed consumptions were investigated. The test was repeated twice. […] 1-8, 1-9, 1-13, 1-15, 1-17, 1-22, 1-23, 1-27, 1-39, 1-45, 1-46, 1-59, 1-69, 1-72, 1-74, 1-75, 1-79, 1-80, 1-83, 1-95, 1-97, 1-981-100, 1-105, 1-108, 1-114, 1-133, 1-140, 1-147, 1-153, 1-165, 1-166, 1-181, 1-182, 1-183, 1-184, 1-187, 1-189, 1-190,

SMILES	rate of killed adults [1]	killed ... of the adults (eggs laid for 3 days investigated whether they could grow to adults on the eleventh day) [2]	killed 100% of the army worms, or inhibited their feed consumptions, in comparison with a solvent control area, to 10% or less (effective) (army worms)	melting point
COC(C)OCc1cc(C(F)(F)F)ccc1OC1CCN(c2ccc(C(F)(F)F)cn2)CC1 (centres unmarked) [1-72]	100%	100%	effective	–
CCCOc1cc(C(F)(F)F)ccc1OC1CCN(c2ccc(C(F)(F)F)cn2)CC1CC (centres unmarked) [1-187]	100%	100%	effective	–
Cc1cc(C(F)(F)F)ccc1OC1CCN(c2ccc(C(F)(F)F)cn2)CC1 [1-45]	100%	100%	effective	–
FC(F)(F)c1ccc(N2CCC(Oc3ccc(C(F)(F)F)cc3C(F)(F)F)CC2)nc1 [1-80]	100%	100%	effective	–
CCCOc1cc(C(F)(F)F)ccc1O[C@H]1CCN(c2ccc(C(F)(F)F)cn2)C[C@H]1C (relative stereo) [1-97, cis-3-methyl-4-[2-propoxy-4-(triphloromethyl)phenoxy]-1-[5-(trifluoromethyl)-2-pyridyl]piperidine]	100%	100%	effective	–
CC(=O)Oc1cc(C(F)(F)F)ccc1OC1CCN(c2ccc(C(F)(F)F)cn2)CC1 [1-167, 4-[2-acetoxy-4-(trifluoromethyl)phenoxy]-1-[5-(trifluoromethyl)-2-pyridyl]piperidine]	–	–	–	85 to 95 °C
FC(F)(F)c1ccc(N2CCC(Oc3ccc(C(F)(F)F)cc3I)CC2)nc1 [1-27]	100%	100%	effective	–
COCOCc1cc(C(F)(F)F)ccc1OC1CCN(c2ccc(C(F)(F)F)cn2)CC1C (mixture of isomers) [1-183]	100%	100%	effective	–
FC(F)(F)c1ccc(N2CCC(Oc3ccc(Cl)c(C(F)(F)F)c3)CC2)nc1 [1-15, 4-[4-chloro-3-(trifluoromethyl)phenoxy]-1-[5-(trifluoromethyl)-2-pyridyl]-piperidine]	100%	100%	effective	–
FC(F)(F)Oc1ccc(OC2CCN(c3ccc(C(F)(F)F)cn3)CC2)cc1 [1-133]	100%	100%	effective	–
CCCOCc1cc(C(F)(F)F)ccc1OC1CCN(c2ccc(C(F)(F)F)cn2)CC1 [1-182]	100%	–	effective	–
FC(F)(F)c1ccc(N2CCC(Oc3ccc(C(F)(F)F)cc3Br)CC2)nc1 [1-22]	100%	100%	effective	–
Cc1noc(-c2cc(C(F)(F)F)ccc2OC2CCN(c3ccc(C(F)(F)F)cn3)CC2)n1 [1-190]	100%	100%	effective	–
FC(F)(F)c1ccc(N2CCC(Oc3ccc(C(F)(F)F)cc3OCC3CC3)CC2)nc1 [1-108]	100%	100%	effective	–
FC(F)(F)c1ccc(N2CCC(Oc3ccc(C(F)(F)F)cc3C3OCCO3)CC2)nc1 [1-181]	100%	100%	effective	–
COCOc1cc(C(F)(F)F)ccc1OC1CCN(c2ccc(C(F)(F)F)cn2)CC1 [1-105, 4-[2-methoxymethoxy-4-(trifluoromethyl)-phenoxy]-1-[5-(trifluoromethyl)-2-pyridyl]piperidine]	100%	100%	effective	–
FC(F)(F)c1ccc(OC2CCN(c3ccc(C(F)(F)F)cn3)CC2)cc1 [1-75]	100%	100%	effective	–
FC(F)(F)Sc1ccc(OC2CCN(c3ccc(C(F)(F)F)cn3)CC2)cc1 [1-147]	100%	–	effective	–
COCOCc1cc(C(F)(F)F)ccc1OC1CCN(c2ccc(C(F)(F)F)cn2)CC1 [1-69]	100%	100%	effective	–
O=S(=O)(Oc1ccc(OC2CCN(c3ccc(C(F)(F)F)cn3)CC2)cc1)C(F)(F)F [1-153]	100%	100%	effective	–
COC(C)OCc1cc(C(F)(F)F)ccc1OC1CCN(c2ccc(C(F)(F)F)cn2)CC1C (centres unmarked) [1-189]	100%	100%	effective	–
FC(F)(F)c1ccc(N2CCC(Oc3ccc(C(F)(F)F)cc3Cl)CC2)nc1 [1-13]	100%	100%	effective	–
CC(C)(C)COc1cc(C(F)(F)F)ccc1OC1CCN(c2ccc(C(F)(F)F)cn2)CC1 [1-114]	100%	–	effective	–
CCCc1cc(C(F)(F)F)ccc1OC1CCN(c2ccc(C(F)(F)F)cn2)CC1 [1-59]	100%	100%	effective	–
FC(F)(F)c1ccc(N2CCC(Oc3ccc(Br)c(C(F)(F)F)c3)CC2)nc1 [1-23, 4-[4-bromo-3-(trifluoromethyl)phenoxy]-1-[5-(trifluoromethyl)-2-pyridyl]-piperidine]	100%	–	effective	–
C=CCc1cc(C(F)(F)F)ccc1OC1CCN(c2ccc(C(F)(F)F)cn2)CC1 [1-74]	100%	–	effective	–
